Results taken from patent US20200316023A1, “Method Of Producing Bacterially Derived Indole-3-Propionic Acid And Compositions Comprising Same” (The Procter & Gamble Company, priority 2019, published 2020).

Experiment: pharmacokinetic studies of IPA dose versus serum IPA levels
Format: in vivo
Details: dose of from about 5 to about 10 mg of IPA
Description: In some aspects, the composition can comprise from about 5 to about 10 mg of IPA per dose of the composition.

Compound: O=C(O)CCc1c[nH]c2ccccc12 [IPA, Indole-3-propionic acid]
- IPA levels in serum relative to endogenous baseline: increase IPA levels in serum beyond endogenous baseline values
